Experimental data: ChEMBL document CHEMBL1201862, “PubChem BioAssay data set” (2004)
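Values below derive from 48-hour exposures of cells grown in 96-well plates, with endpoints linearly interpolated between the two concentrations bracketing the appropriate inhibition level. Abbreviation: GI50, concentration required for 50% inhibition of growth.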 Activity calls are given as the source filed them. Rule as the data show it: active = GI50 up to about 1.1 µM and inactive = higher.

Legend:
Assay in all cases: inhibition of tumour cell growth, NCI panel, 48 h
[1] = tested on: DU-145
[2] = tested on: RXF 393
[3] = tested on: SNB-19
[4] = tested on: SF-295
[5] = tested on: OVCAR-5
[6] = tested on: A549
[7] = tested on: UACC-257
[8] = tested on: UACC-62
[9] = tested on: HCT-116
[10] = tested on: MCF7
[11] = tested on: 786-0
[12] = tested on: SR
[13] = tested on: IGROV-1
[14] = tested on: NCI-H226
[15] = tested on: SF-268
[16] = tested on: Hs-578T
[17] = tested on: SNB-75
[18] = tested on: NCI-H23
[19] = tested on: BT-549
[20] = tested on: NCI/ADR-RES

Measured: GI50

COC(=O)Cc1c(-c2[nH]c3ccccc3c2CC(=O)OC)[nH]c2ccccc12
inactive: [1] > 53 µM | [2] 30.3 µM | [3] 53.5 µM | [4] > 57.9 µM | [5] > 54.8 µM | [6] > 52.6 µM | [7] > 56.1 µM | [8] > 49 µM | [9] > 54.2 µM | [10] > 41.1 µM | [11] 33.7 µM | [12] > 55 µM | [13] 45.9 µM | [14] > 54.7 µM | [15] 20.4 µM | [16] > 68.4 µM | [17] > 57.4 µM | [18] > 55.5 µM | [19] > 57.1 µM | [20] > 57.3 µM

Cc1ccc(C)c(/C(=N\N=C(N)N)C2CC2)c1
inactive: [1] 58.9 µM | [2] > 100 µM | [3] 48.9 µM | [4] 42.6 µM | [5] 29.9 µM | [6] 43.3 µM | [7] 31.6 µM | [8] 35.6 µM | [9] 26.4 µM | [10] 47.8 µM | [11] 37 µM | [12] 37.6 µM | [13] 32.7 µM | [14] 31.7 µM | [15] 39.5 µM | [16] 26.1 µM | [17] 37.5 µM | [18] 20.7 µM | [19] 25.5 µM | [20] 58.1 µM

N=c1oc2cc(O)ccc2cc1C(=O)Nc1cccc2ccccc12
inactive: [1] 6.53 µM | [2] 4.91 µM | [3] 4.68 µM | [4] 5.18 µM | [5] 13.5 µM | [6] 5.37 µM | [7] 9.08 µM | [8] 3.23 µM | [9] 3.39 µM | [10] 3.93 µM | [11] 3.45 µM | [12] 1.67 µM | [13] 3.27 µM | [14] 5.92 µM | [15] 3.61 µM | [16] 2.94 µM | [17] 3.54 µM | [18] 3.7 µM | [19] 2.43 µM | [20] 1.82 µM

NC1=Nc2ccccc2Sc2nncn21
inactive: [1] > 100 µM | [2] > 100 µM | [3] > 100 µM | [4] > 100 µM | [5] > 100 µM | [6] > 100 µM | [7] > 100 µM | [8] > 100 µM | [9] > 100 µM | [10] > 100 µM | [11] > 100 µM | [12] > 100 µM | [13] > 100 µM | [14] > 100 µM | [15] > 100 µM | [16] > 100 µM | [17] > 100 µM | [18] > 100 µM | [19] > 100 µM | [20] > 100 µM

O=C1C=C(C2=C(C3=CC(=O)c4ccccc4C3=O)C(=O)c3ccccc3C2=O)C(=O)c2ccccc21
inactive: [1] 5.18 µM | [2] 1.69 µM | [3] 14.4 µM | [4] 16.1 µM | [5] 11.8 µM | [6] 9.48 µM | [7] 10.5 µM | [8] 15.1 µM | [9] 4.84 µM | [10] 7.69 µM | [11] 2.9 µM | [12] 31.1 µM | [13] 2.15 µM | [14] 13 µM | [15] 12.6 µM | [16] 11.5 µM | [17] 9.46 µM | [18] 7.43 µM | [19] 14.6 µM | [20] 11.1 µM

CC(=O)Nc1cc(Cl)cc(Cl)c1O
inactive: [1] > 100 µM | [2] > 100 µM | [3] > 100 µM | [4] > 100 µM | [5] > 100 µM | [6] > 100 µM | [7] > 100 µM | [8] > 100 µM | [9] > 100 µM | [10] > 100 µM | [11] > 100 µM | [12] > 100 µM | [13] > 100 µM | [14] > 100 µM | [15] > 100 µM | [16] > 100 µM | [17] 97.1 µM | [18] > 100 µM | [19] > 100 µM | [20] > 100 µM

CN(C)CCNc1ccc([N+](=O)[O-])c2sc3ccccc3c(=O)c12
inactive: [1] 5.07 µM | [2] 14.4 µM | [3] 5.14 µM | [4] 4.24 µM | [5] 3.03 µM | [6] 3.83 µM | [7] 6.28 µM | [8] 4.61 µM | [9] 2.47 µM | [10] 3.41 µM | [11] 3.38 µM | [12] 1.56 µM | [13] 1.73 µM | [14] 6.11 µM | [15] 4.21 µM | [16] 5.52 µM | [17] 4.68 µM | [18] 4.16 µM | [19] 2.1 µM | [20] 3.44 µM
